The supplement of paper PMC5662764
± gives the standard deviation of the averaged measurements.

Legend:
Experiment in all cases: normalised growth rate inhibition (GR value) relative to DMSO control (GR (1 = untreated growth, 0 = cytostasis, <0 = cytotoxic)); higher = less growth inhibition
Settings in all cases: 72 h
[1] = system: BT20
Experimental: (§1)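 Breast cancer cell lines (BT-20, Hs 578T, MCF 10A, MCF7, MDA-MB-231, SK-BR-3) were plated in 384-well plates and treated 24 h later with drugs at six concentrations (0.04-10 µM). Viable cells were counted by Hoechst/dead-cell-stain imaging at 0 and 72 h. Counts were normalised to DMSO controls on the same plate to give the relative cell count and the growth-rate inhibition (GR) value; technical plate triplicates were averaged for each biological replicate.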

[2] = system: HS578T
Experimental: as §1

[3] = system: MCF10A
Experimental: as §1

[4] = system: MCF7
Experimental: as §1

[5] = system: MDAMB231
Experimental: as §1

[6] = system: SKBR3
Experimental: as §1

| Compound | normalised growth rate inhibition ([1]; 0.04 µM) | normalised growth rate inhibition ([1]; 0.12 µM) | normalised growth rate inhibition ([1]; 0.37 µM) | normalised growth rate inhibition ([1]; 1.11 µM) | normalised growth rate inhibition ([1]; 3.33 µM) | normalised growth rate inhibition ([1]; 10 µM) | normalised growth rate inhibition ([2]; 0.04 µM) | normalised growth rate inhibition ([2]; 0.12 µM) | normalised growth rate inhibition ([2]; 0.37 µM) | normalised growth rate inhibition ([2]; 1.11 µM) | normalised growth rate inhibition ([2]; 3.33 µM) | normalised growth rate inhibition ([2]; 10 µM) | normalised growth rate inhibition ([3]; 0.04 µM) | normalised growth rate inhibition ([3]; 0.12 µM) | normalised growth rate inhibition ([3]; 0.37 µM) | normalised growth rate inhibition ([3]; 1.11 µM) | normalised growth rate inhibition ([3]; 3.33 µM) | normalised growth rate inhibition ([3]; 10 µM) | normalised growth rate inhibition ([4]; 0.04 µM) | normalised growth rate inhibition ([4]; 0.12 µM) | normalised growth rate inhibition ([4]; 0.37 µM) | normalised growth rate inhibition ([4]; 1.11 µM) | normalised growth rate inhibition ([4]; 3.33 µM) | normalised growth rate inhibition ([4]; 10 µM) | normalised growth rate inhibition ([5]; 0.04 µM) | normalised growth rate inhibition ([5]; 0.12 µM) | normalised growth rate inhibition ([5]; 0.37 µM) | normalised growth rate inhibition ([5]; 1.11 µM) | normalised growth rate inhibition ([5]; 3.33 µM) | normalised growth rate inhibition ([5]; 10 µM) | normalised growth rate inhibition ([6]; 0.04 µM) | normalised growth rate inhibition ([6]; 0.12 µM) | normalised growth rate inhibition ([6]; 0.37 µM) | normalised growth rate inhibition ([6]; 1.11 µM) | normalised growth rate inhibition ([6]; 3.33 µM) | normalised growth rate inhibition ([6]; 10 µM) |
| --- | --- | --- | --- | --- | --- | --- | --- | --- | --- | --- | --- | --- | --- | --- | --- | --- | --- | --- | --- | --- | --- | --- | --- | --- | --- | --- | --- | --- | --- | --- | --- | --- | --- | --- | --- | --- |
| CC(C)(C)c1cnc(CSc2cnc(NC(=O)C3CCNCC3)s2)o1 | 0.885 ± 0.061 | 0.134 ± 0.27 | -0.239 ± 0.067 | -0.323 ± 0.17 | -0.33 ± 0.19 | -0.299 ± 0.2 | 0.786 ± 0.044 | -0.123 ± 0.12 | -0.146 ± 0.094 | -0.155 ± 0.12 | -0.137 ± 0.095 | -0.148 ± 0.11 | 0.921 ± 0.093 | 0.0575 ± 0.011 | -0.186 ± 0.2 | -0.256 ± 0.23 | -0.261 ± 0.23 | -0.254 ± 0.19 | -0.0791 ± 0.16 | -0.295 ± 0.04 | -0.329 ± 0.061 | -0.326 ± 0.058 | -0.34 ± 0.063 | -0.354 ± 0.083 | 0.314 ± 0.11 | -0.201 ± 0.17 | -0.24 ± 0.17 | -0.23 ± 0.15 | -0.203 ± 0.18 | -0.201 ± 0.14 | 0.464 ± 0.18 | -0.223 ± 0.15 | -0.312 ± 0.17 | -0.332 ± 0.17 | -0.343 ± 0.21 | -0.367 ± 0.21 |
| CC(C)CC(=O)Nc1n[nH]c2c1CN(C(=O)C1CCN(C)CC1)C2(C)C | 0.52 ± 0.085 | 0.436 ± 0.047 | 0.276 ± 0.097 | 0.109 ± 0.12 | -0.0127 ± 0.079 | -0.219 ± 0.12 | 0.497 ± 0.057 | 0.427 ± 0.073 | 0.227 ± 0.11 | 0.0474 ± 0.12 | -0.035 ± 0.096 | -0.157 ± 0.11 | 0.322 ± 0.09 | 0.228 ± 0.053 | 0.116 ± 0.063 | 0.0382 ± 0.073 | -0.0512 ± 0.066 | -0.187 ± 0.19 | 0.207 ± 0.15 | 0.143 ± 0.1 | 0.0348 ± 0.063 | -0.0125 ± 0.053 | -0.102 ± 0.12 | -0.328 ± 0.029 | 0.304 ± 0.16 | 0.211 ± 0.072 | 0.0329 ± 0.056 | -0.0471 ± 0.091 | -0.13 ± 0.13 | -0.262 ± 0.2 | 0.145 ± 0.15 | 0.0952 ± 0.085 | 0.0136 ± 0.079 | -0.0334 ± 0.073 | -0.0738 ± 0.074 | -0.305 ± 0.21 |
| CCN(CC)CCCCNc1ncc2cc(-c3cc(OC)cc(OC)c3)c(NC(=O)NC(C)(C)C)nc2n1 | 1.1 ± 0.039 | 1.08 ± 0.058 | 1.09 ± 0.056 | 1.14 ± 0.066 | 1.16 ± 0.049 | 0.853 ± 0.18 | 0.852 ± 0.074 | 0.824 ± 0.083 | 0.835 ± 0.074 | 0.846 ± 0.061 | 0.809 ± 0.071 | 0.164 ± 0.14 | 1.022 ± 0.0032 | 1.005 ± 0.0025 | 0.9981 ± 0.0038 | 0.9929 ± 0.0079 | 0.984 ± 0.016 | 0.644 ± 0.15 | 1.1 ± 0.066 | 1.08 ± 0.029 | 1.04 ± 0.078 | 1.1 ± 0.066 | 1.1 ± 0.12 | 0.572 ± 0.16 | 1.08 ± 0.053 | 1.07 ± 0.032 | 1.08 ± 0.079 | 1.07 ± 0.054 | 1.04 ± 0.018 | 0.0514 ± 0.23 | 1.14 ± 0.12 | 1.12 ± 0.13 | 1.08 ± 0.085 | 1.13 ± 0.12 | 1.12 ± 0.11 | 0.209 ± 0.2 |
| CCc1cc(Nc2nccc(-c3c(-c4ccc(OC)c(C(=O)Nc5c(F)cccc5F)c4)nc4ccccn34)n2)c(OC)cc1N1CCC(N2CCN(S(C)(=O)=O)CC2)CC1 | 0.821 ± 0.056 | 0.902 ± 0.036 | 0.916 ± 0.017 | 0.937 ± 0.042 | 0.961 ± 0.029 | 0.999 ± 0.043 | 0.96 ± 0.025 | 0.958 ± 0.013 | 0.965 ± 0.017 | 0.931 ± 0.024 | 0.951 ± 0.032 | 0.955 ± 0.023 | 0.719 ± 0.2 | 0.699 ± 0.19 | 0.656 ± 0.22 | 0.608 ± 0.23 | 0.621 ± 0.23 | 0.634 ± 0.18 | 0.473 ± 0.16 | 0.418 ± 0.17 | 0.404 ± 0.092 | 0.363 ± 0.081 | 0.358 ± 0.069 | 0.319 ± 0.091 | 0.813 ± 0.093 | 0.864 ± 0.045 | 0.893 ± 0.027 | 0.9 ± 0.011 | 0.971 ± 0.02 | 0.939 ± 0.024 | 0.701 ± 0.094 | 0.841 ± 0.045 | 0.98 ± 0.02 | 0.986 ± 0.057 | 1.04 ± 0.023 | 1.05 ± 0.027 |
| CN(c1ncccc1CNc1nc(Nc2ccc3c(c2)CC(=O)N3)ncc1C(F)(F)F)S(C)(=O)=O | 0.921 ± 0.011 | 0.879 ± 0.031 | 0.815 ± 0.069 | 0.583 ± 0.13 | 0.201 ± 0.15 | -0.212 ± 0.071 | 0.897 ± 0.02 | 0.812 ± 0.035 | 0.735 ± 0.034 | 0.62 ± 0.042 | 0.438 ± 0.048 | -0.0953 ± 0.11 | 0.894 ± 0.02 | 0.814 ± 0.017 | 0.66 ± 0.014 | 0.4 ± 0.098 | 0.0782 ± 0.016 | -0.191 ± 0.2 | 0.8557 ± 0.0043 | 0.759 ± 0.054 | 0.529 ± 0.066 | 0.251 ± 0.094 | -0.0743 ± 0.044 | -0.309 ± 0.069 | 0.897 ± 0.027 | 0.825 ± 0.081 | 0.741 ± 0.075 | 0.577 ± 0.14 | 0.166 ± 0.14 | -0.196 ± 0.22 | 1.05 ± 0.051 | 0.984 ± 0.095 | 0.704 ± 0.099 | 0.198 ± 0.053 | -0.0632 ± 0.084 | -0.254 ± 0.25 |
| CNC(=O)Nc1ccc(-c2nc(N3CC4CCC(C3)O4)c3cnn(C4CCC5(CC4)OCCO5)c3n2)cc1 | 0.473 ± 0.17 | 0.269 ± 0.11 | 0.208 ± 0.084 | 0.15 ± 0.064 | 0.113 ± 0.075 | 0.0435 ± 0.086 | 0.268 ± 0.079 | 0.212 ± 0.066 | 0.198 ± 0.091 | 0.172 ± 0.096 | 0.177 ± 0.093 | 0.101 ± 0.15 | 0.506 ± 0.15 | 0.284 ± 0.064 | 0.224 ± 0.057 | 0.176 ± 0.017 | 0.151 ± 0.042 | 0.14 ± 0.026 | 0.16 ± 0.091 | 0.14 ± 0.1 | 0.13 ± 0.069 | 0.149 ± 0.1 | 0.0933 ± 0.1 | -0.00137 ± 0.14 | 0.499 ± 0.16 | 0.369 ± 0.18 | 0.301 ± 0.15 | 0.285 ± 0.12 | 0.23 ± 0.12 | 0.0984 ± 0.14 | 0.0703 ± 0.093 | 0.000862 ± 0.13 | -0.00643 ± 0.17 | -0.00784 ± 0.15 | -0.0626 ± 0.15 | -0.0635 ± 0.14 |
| COCC(=O)NC/C=C/c1ccc2ncnc(Nc3ccc(Oc4ccc(C)nc4)c(C)c3)c2c1 | 0.928 ± 0.0096 | 0.918 ± 0.026 | 0.892 ± 0.045 | 0.805 ± 0.032 | 0.767 ± 0.053 | 0.531 ± 0.052 | 0.966 ± 0.018 | 0.975 ± 0.035 | 0.963 ± 0.026 | 0.956 ± 0.042 | 0.928 ± 0.025 | 0.857 ± 0.017 | 1.011 ± 0.0036 | 0.9964 ± 0.006 | 0.989 ± 0.014 | 0.984 ± 0.01 | 0.9849 ± 0.0016 | 0.9384 ± 0.003 | 0.835 ± 0.1 | 0.803 ± 0.063 | 0.786 ± 0.025 | 0.796 ± 0.066 | 0.822 ± 0.084 | 0.499 ± 0.13 | 0.899 ± 0.13 | 0.896 ± 0.13 | 0.897 ± 0.12 | 0.912 ± 0.088 | 0.832 ± 0.15 | 0.812 ± 0.14 | 0.508 ± 0.27 | 0.315 ± 0.22 | 0.188 ± 0.21 | 0.165 ± 0.12 | 0.0772 ± 0.1 | -0.0874 ± 0.078 |
